Measured values from patent US9260467B2, “Sialic acid dimers” (priority 2011, dated 2016).

Target: T1, Siglec-2 (CD22) (Homo sapiens, UniProt P20273)
T1 sequence (P20273 20-847): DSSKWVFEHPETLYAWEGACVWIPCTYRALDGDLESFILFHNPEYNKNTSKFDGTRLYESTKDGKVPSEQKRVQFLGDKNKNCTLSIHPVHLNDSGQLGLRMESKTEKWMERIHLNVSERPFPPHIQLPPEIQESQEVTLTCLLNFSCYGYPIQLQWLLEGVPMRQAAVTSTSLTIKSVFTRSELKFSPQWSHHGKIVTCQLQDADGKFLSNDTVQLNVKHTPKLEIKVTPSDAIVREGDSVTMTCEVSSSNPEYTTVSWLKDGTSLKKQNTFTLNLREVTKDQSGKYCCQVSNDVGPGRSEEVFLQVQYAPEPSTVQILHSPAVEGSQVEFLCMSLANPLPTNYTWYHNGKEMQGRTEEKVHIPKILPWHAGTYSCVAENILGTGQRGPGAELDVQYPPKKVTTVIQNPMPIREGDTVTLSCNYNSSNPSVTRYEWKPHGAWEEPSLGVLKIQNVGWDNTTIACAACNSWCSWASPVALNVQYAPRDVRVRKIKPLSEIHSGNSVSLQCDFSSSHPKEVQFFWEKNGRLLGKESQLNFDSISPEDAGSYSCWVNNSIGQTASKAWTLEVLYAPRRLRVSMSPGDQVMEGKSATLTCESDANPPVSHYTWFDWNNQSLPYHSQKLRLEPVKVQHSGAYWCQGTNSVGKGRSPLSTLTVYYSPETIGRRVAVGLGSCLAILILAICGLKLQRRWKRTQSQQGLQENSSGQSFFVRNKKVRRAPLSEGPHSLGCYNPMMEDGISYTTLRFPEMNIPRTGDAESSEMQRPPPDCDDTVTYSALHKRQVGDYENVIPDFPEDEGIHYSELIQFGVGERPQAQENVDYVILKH
Assay: new affinity assay: displacement of biotinylated compound 155 from sialidase-treated Daudi cells, FACS with streptavidin-PE
Assay type: binding
Design: endogenous in cells; host or cells: Daudi (human B-cell lymphoma line)
Conditions: Table II; rIP values set relative to compound 38; Daudi cells, displacement of compound 155
Experimental: To determine the affinity of the compound of the formula (I), approximately 5×10^6 to 2×10^8 cells of the human B-cell lymphoma line “Daudi” were incubated with sialidase (A. ureafaciens) at 37° C. for 1 h (final concentration 0.1 unit/ml). […] Batches of 1-2×10^6 cells were transferred to sample vessels, and incubated on ice for 15 min with serial concentrations (10-fold dilutions, 1 mM to 1×10^−7 mM) of the substance under measurement (inhibitor). The reaction volume was 50 μl. Then 50 microliters of compound 155 (4-micromolar) were added, and incubation took place for 20 min Washing with FACS buffer (PBS, 0.1 BSA, 0.01% sodium azide) was followed by incubation with streptavidin-PE in the dark for 15 min, followed by washing and measurement of the bound amount of […] via the streptavidin-PE in the FACS. For the determination of 0% displacement of the compound 155, cells without inhibitor were measured. For the determination of 100% displacement, cells were measured without compound 155 and without inhibitor. For each assay, four substances and one reference were measured. The IC50 values determined in each assay were subsequently converted into values of rIP (relative Inhibitory Potency). […]

| Structure (SMILES) | rIP |
| --- | --- |
| CC(=O)N[C@H]1[C@H]([C@H](O)[C@H](O)CNC(=O)c2ccc(-c3ccc(C)cc3)cc2)O[C@@](OCCCSCCNC(=O)c2ccc(C(=O)NCCSCCCO[C@]3(C(=O)[O-])C[C@H](O)[C@@H](NC(C)=O)[C@H]([C@H](O)[C@H](O)CNC(=O)c4ccc(-c5ccc(C)cc5)cc4)O3)cc2)(C(=O)[O-])C[C@@H]1O.[Na+].[Na+] [Compound 76] | 188 |
| CC(=O)N[C@H]1[C@H]([C@H](O)[C@H](O)CNS(=O)(=O)c2ccc(-c3ccccc3)cc2)O[C@@](OCCCSCCNC(=O)c2ccc(C(=O)NCCSCCCO[C@]3(C(=O)[O-])C[C@H](O)[C@@H](NC(C)=O)[C@H]([C@H](O)[C@H](O)CNS(=O)(=O)c4ccc(-c5ccccc5)cc4)O3)cc2)(C(=O)[O-])C[C@@H]1O.[Na+].[Na+] [Compound 84] | 9 |
| CC(=O)N[C@H]1[C@H]([C@H](O)[C@H](O)CNC(=O)c2ccc(-c3ccccc3)cc2)O[C@@](OCCCSCCNC(=O)c2ccccc2-c2ccccc2C(=O)NCCSCCCO[C@]2(C(=O)[O-])C[C@H](O)[C@@H](NC(C)=O)[C@H]([C@H](O)[C@H](O)CNC(=O)c3ccc(-c4ccccc4)cc3)O2)(C(=O)[O-])C[C@@H]1O.[Na+].[Na+] [Compound 35] | 717 |
| CC(=O)N[C@H]1[C@H]([C@H](O)[C@H](O)CNCc2ccc(-c3ccccc3)cc2)O[C@@](OCCCSCCNC(=O)c2ccc(C(=O)NCCSCCCO[C@]3(C(=O)[O-])C[C@H](O)[C@@H](NC(C)=O)[C@H]([C@H](O)[C@H](O)CNCc4ccc(-c5ccccc5)cc4)O3)cc2)(C(=O)[O-])C[C@@H]1O.[Na+].[Na+] [Compound 85] | 1 |
| CC(=O)N[C@H]1[C@H]([C@H](O)[C@H](O)CNC(=O)c2ccc(-c3ccccc3)cc2)O[C@@](OCCCSCCC(=O)Nc2cccc(NC(=O)CCSCCCO[C@]3(C(=O)[O-])C[C@H](O)[C@@H](NC(C)=O)[C@H]([C@H](O)[C@H](O)CNC(=O)c4ccc(-c5ccccc5)cc4)O3)c2)(C(=O)[O-])C[C@@H]1O.[Na+].[Na+] [Compound 41] | 423 |
| CC(=O)N[C@H]1[C@H]([C@H](O)[C@H](O)CNC(=O)c2ccc(-c3ccc([N+](=O)[O-])cc3[N+](=O)[O-])c([N+](=O)[O-])c2)O[C@@](OCCCSCCNC(=O)c2ccc(C(=O)NCCSCCCO[C@]3(C(=O)[O-])C[C@H](O)[C@@H](NC(C)=O)[C@H]([C@H](O)[C@H](O)CNC(=O)c4ccc(-c5ccc([N+](=O)[O-])cc5[N+](=O)[O-])c([N+](=O)[O-])c4)O3)cc2)(C(=O)[O-])C[C@@H]1O.[Na+].[Na+] [Compound 69] | 14 |
| CC(=O)N[C@H]1[C@H]([C@H](O)[C@H](O)CNC(=O)c2ccc(-c3ccccc3)cc2)O[C@@](OCc2cn(CCNC(=O)c3ccc(C(=O)NCCn4cc(CO[C@]5(C(=O)[O-])C[C@H](O)[C@@H](NC(C)=O)[C@H]([C@H](O)[C@H](O)CNC(=O)c6ccc(-c7ccccc7)cc6)O5)nn4)cc3)nn2)(C(=O)[O-])C[C@@H]1O.[Na+].[Na+] [Compound 125] | 8 |
| CC(=O)N[C@H]1[C@H]([C@H](O)[C@H](O)CNC(=O)c2ccc(-c3ccccc3)cc2)O[C@@](OCCCSCCNC(=O)c2ccc(C(=O)NCCSCCCO[C@]3(C(=O)[O-])C[C@H](O)[C@@H](NC(C)=O)[C@H]([C@H](O)[C@H](O)CNC(=O)c4ccc(-c5ccccc5)cc4)O3)s2)(C(=O)[O-])C[C@@H]1O.[Na+].[Na+] [Compound 29] | 2061 |
| CC(=O)N[C@H]1[C@H]([C@H](O)[C@H](O)CNC(=O)c2ccc(-c3ccccc3)cc2)O[C@@](OCCCSCCNC(=O)c2ccc(-c3ccc(C(=O)NCCSCCCO[C@]4(C(=O)[O-])C[C@H](O)[C@@H](NC(C)=O)[C@H]([C@H](O)[C@H](O)CNC(=O)c5ccc(-c6ccccc6)cc5)O4)cc3)cc2)(C(=O)[O-])C[C@@H]1O.[Na+].[Na+] [Compound 24] | 75 |
| CC(=O)N[C@H]1[C@H]([C@H](O)[C@H](O)CNC(=O)c2ccc(-c3ccccc3)cc2)O[C@@](OCCCCCCNC(=O)c2ccc(C(=O)NCCSCCCO[C@]3(C(=O)O)C[C@H](O)[C@@H](NC(C)=O)[C@H]([C@H](O)[C@H](O)CNC(=O)c4ccc(-c5ccccc5)cc4)O3)cc2)(C(=O)O)C[C@@H]1O [Compound 92] | 3788 |
| CC(=O)N[C@H]1[C@H]([C@H](O)[C@H](O)CNC(=O)c2ccc(-c3ccccc3Cl)cc2)O[C@@](OCCCSCCNC(=O)c2ccc(C(=O)NCCSCCCO[C@]3(C(=O)[O-])C[C@H](O)[C@@H](NC(C)=O)[C@H]([C@H](O)[C@H](O)CNC(=O)c4ccc(-c5ccccc5Cl)cc4)O3)cc2)(C(=O)[O-])C[C@@H]1O.[Na+].[Na+] [Compound 75] | 3210 |
| CC(=O)N[C@H]1[C@H]([C@H](O)[C@H](O)CNC(=O)c2ccc(-c3ccccc3)cc2)O[C@@](OCCCSCCNC(=O)c2ccc(C(=O)NCCSCCCO[C@]3(C(=O)[O-])C[C@H](O)[C@@H](NC(C)=O)[C@H]([C@H](O)[C@H](O)CNC(=O)c4ccc(-c5ccccc5)cc4)O3)cc2)(C(=O)[O-])C[C@@H]1OC(=O)c1ccccc1.[Na+].[Na+] [Compound 147] | 32069 |
| CC(=O)N[C@H]1[C@H]([C@H](O)[C@H](O)CNC(=O)c2ccc(-c3ccco3)cc2)O[C@@](OCCCSCCNC(=O)c2ccc(C(=O)NCCSCCCO[C@]3(C(=O)[O-])C[C@H](O)[C@@H](NC(C)=O)[C@H]([C@H](O)[C@H](O)CNC(=O)c4ccc(-c5ccco5)cc4)O3)cc2)(C(=O)[O-])C[C@@H]1O.[Na+].[Na+] [Compound 82] | 752 |
| CC(=O)N[C@H]1[C@H]([C@H](O)[C@H](O)CNc2c(NCc3ccccc3)c(=O)c2=O)O[C@@](OCCCSCCNC(=O)c2ccc(C(=O)NCCSCCCO[C@]3(C(=O)[O-])C[C@H](O)[C@@H](NC(C)=O)[C@H]([C@H](O)[C@H](O)CNc4c(NCc5ccccc5)c(=O)c4=O)O3)cc2)(C(=O)[O-])C[C@@H]1O.[Na+].[Na+] [Compound 134] | 70 |
| CC(=O)N[C@H]1[C@H]([C@H](O)[C@H](O)CNC(=O)c2ccc(Cl)cc2)O[C@@](OCCCSCCNC(=O)c2ccc(C(=O)NCCSCCCO[C@]3(C(=O)[O-])C[C@H](O)[C@@H](NC(C)=O)[C@H]([C@H](O)[C@H](O)CNC(=O)c4ccc(Cl)cc4)O3)cc2)(C(=O)[O-])C[C@@H]1O.[Na+].[Na+] [Compound 72] | 38 |
| CC(=O)N[C@H]1[C@H]([C@H](O)[C@H](O)CNC(=O)c2ccc(-c3ccccc3)cc2)O[C@@](OCCCSCCC(=O)NCCCCCCNC(=O)CCSCCCO[C@]2(C(=O)[O-])C[C@H](O)[C@@H](NC(C)=O)[C@H]([C@H](O)[C@H](O)CNC(=O)c3ccc(-c4ccccc4)cc3)O2)(C(=O)[O-])C[C@@H]1O.[Na+].[Na+] [Compound 43] | 15 |
| CC(=O)N[C@H]1[C@H]([C@H](O)[C@H](O)CNC(=O)c2ccc(Oc3ccccc3)cc2)O[C@@](OCCCSCCNC(=O)c2ccc(C(=O)NCCSCCCO[C@]3(C(=O)[O-])C[C@H](O)[C@@H](NC(C)=O)[C@H]([C@H](O)[C@H](O)CNC(=O)c4ccc(Oc5ccccc5)cc4)O3)cc2)(C(=O)[O-])C[C@@H]1O.[Na+].[Na+] [Compound 63] | 20 |
| CC(=O)N[C@H]1[C@H]([C@H](O)[C@H](O)CNC(=O)c2ccc(C3CCCCC3)cc2)O[C@@](OCCCSCCNC(=O)CCCCC(=O)NCCSCCCO[C@]2(C(=O)[O-])C[C@H](O)[C@@H](NC(C)=O)[C@H]([C@H](O)[C@H](O)CNC(=O)c3ccc(C4CCCCC4)cc3)O2)(C(=O)[O-])C[C@@H]1O.[Na+].[Na+] [Compound 58] | 24 |
| CC(=O)N[C@H]1[C@H]([C@H](O)[C@H](O)CNC(=O)c2ccc(-c3ccccc3)s2)O[C@@](OCCCSCCNC(=O)c2ccc(C(=O)NCCSCCCO[C@]3(C(=O)[O-])C[C@H](O)[C@@H](NC(C)=O)[C@H]([C@H](O)[C@H](O)CNC(=O)c4ccc(-c5ccccc5)s4)O3)cc2)(C(=O)[O-])C[C@@H]1O.[Na+].[Na+] [Compound 65] | 106 |
| CC(=O)N[C@H]1[C@H]([C@H](O)[C@H](O)CNC(=O)c2ccc(-c3ccccc3)cc2)O[C@@](OCCCSCCC(=O)Nc2ccc(NC(=O)CCSCCCO[C@]3(C(=O)[O-])C[C@H](O)[C@@H](NC(C)=O)[C@H]([C@H](O)[C@H](O)CNC(=O)c4ccc(-c5ccccc5)cc4)O3)cc2)(C(=O)[O-])C[C@@H]1O.[Na+].[Na+] [Compound 39] | 10760 |
